Common to all, as to assay: Kinase profiling
What all share (assay type): biochemical

One assay deals with T1, MERTK (Homo sapiens, UniProt Q12866).
T1 construct: purchased ProQinase (Freiburg, Germany)
T1 sequence (Q12866 21-999): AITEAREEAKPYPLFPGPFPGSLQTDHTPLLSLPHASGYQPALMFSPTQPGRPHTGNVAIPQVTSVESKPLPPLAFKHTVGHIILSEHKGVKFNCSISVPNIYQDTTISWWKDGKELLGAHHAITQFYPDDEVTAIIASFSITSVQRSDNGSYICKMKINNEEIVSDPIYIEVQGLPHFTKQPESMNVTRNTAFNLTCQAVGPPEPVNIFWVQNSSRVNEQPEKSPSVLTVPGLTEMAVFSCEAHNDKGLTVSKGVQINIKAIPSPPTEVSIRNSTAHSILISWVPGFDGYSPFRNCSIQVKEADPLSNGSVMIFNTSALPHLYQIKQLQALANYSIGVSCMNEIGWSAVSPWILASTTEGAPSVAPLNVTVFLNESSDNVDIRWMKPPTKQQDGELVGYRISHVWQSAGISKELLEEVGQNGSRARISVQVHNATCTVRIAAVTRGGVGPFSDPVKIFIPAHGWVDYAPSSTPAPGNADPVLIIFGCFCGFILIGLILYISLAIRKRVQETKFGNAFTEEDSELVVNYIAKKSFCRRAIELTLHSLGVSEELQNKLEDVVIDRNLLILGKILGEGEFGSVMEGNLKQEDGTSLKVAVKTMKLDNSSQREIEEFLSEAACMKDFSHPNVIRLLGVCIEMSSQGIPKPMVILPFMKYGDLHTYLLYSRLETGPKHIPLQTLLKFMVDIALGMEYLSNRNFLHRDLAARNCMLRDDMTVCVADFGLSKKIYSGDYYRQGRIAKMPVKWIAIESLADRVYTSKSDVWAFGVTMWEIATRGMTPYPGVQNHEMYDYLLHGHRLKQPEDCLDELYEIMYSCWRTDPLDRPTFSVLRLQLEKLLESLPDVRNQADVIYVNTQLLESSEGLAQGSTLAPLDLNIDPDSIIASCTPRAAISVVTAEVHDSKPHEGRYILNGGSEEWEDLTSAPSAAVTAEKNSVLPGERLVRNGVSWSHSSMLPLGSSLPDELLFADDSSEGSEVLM
As to the method: (§1) The analysis was performed by ProQinase (Freiburg, Germany).

The target in a further assay is T2, CLK4 (Homo sapiens, UniProt Q9HAZ1).
T2 construct: purchased ProQinase (Freiburg, Germany)
T2 sequence (Q9HAZ1 whole entry): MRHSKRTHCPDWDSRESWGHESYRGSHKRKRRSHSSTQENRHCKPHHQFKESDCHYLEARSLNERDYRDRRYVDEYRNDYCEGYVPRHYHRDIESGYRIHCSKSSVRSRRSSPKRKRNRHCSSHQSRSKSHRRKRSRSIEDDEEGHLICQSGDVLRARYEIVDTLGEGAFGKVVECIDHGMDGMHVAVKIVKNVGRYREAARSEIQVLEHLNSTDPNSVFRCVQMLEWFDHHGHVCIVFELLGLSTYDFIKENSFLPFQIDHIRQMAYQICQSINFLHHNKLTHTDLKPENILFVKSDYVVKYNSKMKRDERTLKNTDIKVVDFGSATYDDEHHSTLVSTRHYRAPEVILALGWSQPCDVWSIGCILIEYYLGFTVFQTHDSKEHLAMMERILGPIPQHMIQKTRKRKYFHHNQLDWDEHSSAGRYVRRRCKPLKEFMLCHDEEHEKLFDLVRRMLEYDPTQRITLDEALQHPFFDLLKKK
The procedure: as §1

For the next assay, the target named is T3, PASK (Homo sapiens, UniProt Q96RG2).
T3 construct: purchased ProQinase (Freiburg, Germany)
T3 sequence (Q96RG2 whole entry): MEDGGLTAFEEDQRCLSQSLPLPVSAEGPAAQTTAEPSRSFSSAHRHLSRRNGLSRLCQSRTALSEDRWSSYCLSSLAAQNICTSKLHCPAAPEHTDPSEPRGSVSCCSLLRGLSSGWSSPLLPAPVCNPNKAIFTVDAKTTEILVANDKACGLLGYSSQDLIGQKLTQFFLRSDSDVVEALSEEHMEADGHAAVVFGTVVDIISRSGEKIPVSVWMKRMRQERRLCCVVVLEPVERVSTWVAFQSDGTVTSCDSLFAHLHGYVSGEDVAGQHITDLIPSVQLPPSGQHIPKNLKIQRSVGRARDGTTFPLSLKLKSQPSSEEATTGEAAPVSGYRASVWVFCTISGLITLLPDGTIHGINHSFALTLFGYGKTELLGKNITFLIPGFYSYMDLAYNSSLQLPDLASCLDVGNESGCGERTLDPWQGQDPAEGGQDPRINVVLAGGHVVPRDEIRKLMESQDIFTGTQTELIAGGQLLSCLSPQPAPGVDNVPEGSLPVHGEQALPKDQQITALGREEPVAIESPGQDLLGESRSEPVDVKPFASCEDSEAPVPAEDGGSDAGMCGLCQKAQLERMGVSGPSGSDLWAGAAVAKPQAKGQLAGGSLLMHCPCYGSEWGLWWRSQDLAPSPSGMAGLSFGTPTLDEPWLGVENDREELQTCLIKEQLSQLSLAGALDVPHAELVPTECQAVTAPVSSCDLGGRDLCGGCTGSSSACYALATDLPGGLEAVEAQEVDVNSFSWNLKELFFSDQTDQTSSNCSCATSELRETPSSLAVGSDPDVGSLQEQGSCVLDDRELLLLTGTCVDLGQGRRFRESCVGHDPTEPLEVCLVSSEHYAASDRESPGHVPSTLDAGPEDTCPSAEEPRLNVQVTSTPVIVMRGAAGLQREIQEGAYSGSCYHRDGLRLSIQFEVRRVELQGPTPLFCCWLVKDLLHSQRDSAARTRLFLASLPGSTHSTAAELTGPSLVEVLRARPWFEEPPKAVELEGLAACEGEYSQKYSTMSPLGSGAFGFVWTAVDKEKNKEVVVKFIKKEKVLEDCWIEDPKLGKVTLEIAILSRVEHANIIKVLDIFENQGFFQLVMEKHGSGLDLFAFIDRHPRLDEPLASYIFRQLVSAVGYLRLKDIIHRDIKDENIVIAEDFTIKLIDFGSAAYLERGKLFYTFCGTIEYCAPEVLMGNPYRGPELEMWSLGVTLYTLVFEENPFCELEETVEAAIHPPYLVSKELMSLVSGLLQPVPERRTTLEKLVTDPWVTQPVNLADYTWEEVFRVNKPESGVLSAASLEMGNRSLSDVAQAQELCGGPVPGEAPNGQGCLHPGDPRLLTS
As to the method: as §1

For the next assay, the target named is T4, EPHB2 (Homo sapiens, UniProt P29323).
T4 construct: purchased ProQinase (Freiburg, Germany)
T4 sequence (P29323 19-1055): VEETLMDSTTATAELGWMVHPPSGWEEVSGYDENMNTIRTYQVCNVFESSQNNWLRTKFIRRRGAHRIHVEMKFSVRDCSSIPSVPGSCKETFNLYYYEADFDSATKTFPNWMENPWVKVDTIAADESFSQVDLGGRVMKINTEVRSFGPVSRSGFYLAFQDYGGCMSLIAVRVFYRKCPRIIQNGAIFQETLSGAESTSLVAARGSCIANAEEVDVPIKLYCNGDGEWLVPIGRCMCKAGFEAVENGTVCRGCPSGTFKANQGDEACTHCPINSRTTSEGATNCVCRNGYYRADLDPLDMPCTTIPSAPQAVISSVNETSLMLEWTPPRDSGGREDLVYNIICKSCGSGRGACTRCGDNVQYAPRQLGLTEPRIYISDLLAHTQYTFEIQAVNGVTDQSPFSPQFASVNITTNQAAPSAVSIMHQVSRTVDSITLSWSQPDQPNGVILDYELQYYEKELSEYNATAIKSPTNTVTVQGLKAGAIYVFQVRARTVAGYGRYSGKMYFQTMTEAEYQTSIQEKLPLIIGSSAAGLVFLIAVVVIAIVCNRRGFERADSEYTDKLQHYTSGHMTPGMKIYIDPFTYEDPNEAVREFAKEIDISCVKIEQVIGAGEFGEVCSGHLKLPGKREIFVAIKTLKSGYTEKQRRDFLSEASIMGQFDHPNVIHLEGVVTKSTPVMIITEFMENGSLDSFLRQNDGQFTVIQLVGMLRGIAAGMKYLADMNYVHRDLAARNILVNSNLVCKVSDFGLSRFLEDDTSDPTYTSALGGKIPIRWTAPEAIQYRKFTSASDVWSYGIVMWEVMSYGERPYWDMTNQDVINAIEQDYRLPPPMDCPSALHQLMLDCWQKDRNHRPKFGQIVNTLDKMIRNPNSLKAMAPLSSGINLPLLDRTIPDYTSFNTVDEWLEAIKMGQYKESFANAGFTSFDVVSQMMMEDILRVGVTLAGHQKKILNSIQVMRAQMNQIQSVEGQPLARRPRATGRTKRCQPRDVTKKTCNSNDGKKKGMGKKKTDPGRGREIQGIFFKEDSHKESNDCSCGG
As to the method:
as §1

Another assay addresses T5, DCAMKL2 (Homo sapiens, UniProt Q8N568).
T5 construct: purchased ProQinase (Freiburg, Germany)
T5 sequence (Q8N568 1-766): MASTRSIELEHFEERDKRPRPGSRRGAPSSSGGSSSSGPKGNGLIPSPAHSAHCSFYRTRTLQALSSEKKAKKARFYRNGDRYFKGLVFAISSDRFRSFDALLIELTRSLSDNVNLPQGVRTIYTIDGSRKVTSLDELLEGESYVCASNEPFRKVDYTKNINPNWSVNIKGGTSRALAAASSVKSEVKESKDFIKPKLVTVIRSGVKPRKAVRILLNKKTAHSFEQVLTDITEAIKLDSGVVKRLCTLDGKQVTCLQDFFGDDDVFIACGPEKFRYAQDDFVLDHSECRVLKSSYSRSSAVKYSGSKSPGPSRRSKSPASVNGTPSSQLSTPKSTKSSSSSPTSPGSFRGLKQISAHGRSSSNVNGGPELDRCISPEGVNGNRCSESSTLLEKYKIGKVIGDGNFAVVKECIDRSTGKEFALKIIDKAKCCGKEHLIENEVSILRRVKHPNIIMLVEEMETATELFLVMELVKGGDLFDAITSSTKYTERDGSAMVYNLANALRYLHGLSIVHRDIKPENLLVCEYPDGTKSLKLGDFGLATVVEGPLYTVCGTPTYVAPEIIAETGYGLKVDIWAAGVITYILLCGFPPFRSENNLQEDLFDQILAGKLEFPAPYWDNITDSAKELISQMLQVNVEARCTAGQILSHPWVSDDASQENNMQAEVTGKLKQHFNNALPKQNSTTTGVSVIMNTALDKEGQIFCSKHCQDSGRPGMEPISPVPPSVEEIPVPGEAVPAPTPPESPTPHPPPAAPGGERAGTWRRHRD
As to the method: as §1

For the compound `O=C(Cc1ccccc1)Nc1ccc(F)c(Nc2ccc3c(c2)CCCCC3=O)c1` [Compound 100], the Residual activity at MERTK (1.0E-05 M) is recorded as 73 % of control; at MERTK (1.0E-06 M), 103 % of control; on CLK4 (1.0E-05 M) it was 98 % of control; at CLK4 (1.0E-06 M), 103 % of control; on PASK (1.0E-05 M), 97 % of control; at PASK (1.0E-06 M) it was 107 % of control. The Residual activity on EPHB2 (1.0E-05 M) is recorded as 86 % of control; at EPHB2 (1.0E-06 M) it was 93 % of control; at DCAMKL2 (1.0E-05 M) it was 89 % of control; on DCAMKL2 (1.0E-06 M), 101 % of control.
For `O=C(Nc1ccc(F)c(Nc2ccc3c(c2)CCCCC3=O)c1)c1cccc(F)c1` [Compound 109], the Residual activity at MERTK (1.0E-05 M) was 85 % of control; on MERTK (1.0E-06 M), 101 % of control; on CLK4 (1.0E-05 M) it was 108 % of control; on CLK4 (1.0E-06 M) it was 105 % of control; on PASK (1.0E-05 M), 97 % of control; on PASK (1.0E-06 M), 95 % of control. Also, the Residual activity was 84 % of control on EPHB2 (1.0E-05 M), 86 % of control at EPHB2 (1.0E-06 M), 103 % of control at DCAMKL2 (1.0E-05 M) and 100 % of control on DCAMKL2 (1.0E-06 M).

For the origin of these results see article PMC9030254, “Target Hopping from Protein Kinases to PXR: Identification of Small-Molecule Protein Kinase Inhibitors as Selective Modulators of Pregnane X Receptor from TüKIC Library” (Cells, 2022).
